SMILES strings stand for the structures.

The results in this text go back to US11957687B2 (REGENERON PHARMACEUTICALS, INC., priority 2019, dated 2024).

In the assay the target is HSD17B13 (Homo sapiens (Human), UniProt Q7Z5P4). Kind of assay: HSD17B13 enzymatic inhibition assay (150 nM or 50 nM HSD17B13). The assay is classed as biochemical. The conditions noted are these: 50 nM HSD17B13; read-out: Inhibition of 50 nM of HSD17B13 IC50.
HSD17B13, sequence (Q7Z5P4 other isoform, or with tags, fused parts or gaps): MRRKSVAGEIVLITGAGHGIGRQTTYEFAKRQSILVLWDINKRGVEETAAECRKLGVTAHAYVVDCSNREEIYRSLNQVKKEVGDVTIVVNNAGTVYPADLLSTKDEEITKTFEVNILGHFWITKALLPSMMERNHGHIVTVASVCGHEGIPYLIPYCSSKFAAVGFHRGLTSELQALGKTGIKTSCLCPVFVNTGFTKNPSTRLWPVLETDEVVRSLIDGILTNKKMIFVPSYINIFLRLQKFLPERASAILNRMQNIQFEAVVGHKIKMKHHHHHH
By IC50 is commonly meant the midpoint of a concentration-inhibition curve. For `CCCC1Cc2cc(OC)ccc2C(NC(=O)c2ccc(C(F)(F)F)[nH]c2=O)C1` (stereo not shown) [Compound 392, N-(6-methoxy-3-propyl-1,2,3,4-tetrahydronaphthalen-1-yl)-2-oxo-6-(trifluoromethyl)-1,2-dihydropyridine-3-carboxamide], the IC50 was found to be 80 nM.
Then `Cc1ccc2c(c1)C(NC(=O)c1ccc(C(F)(F)F)[nH]c1=O)CS2` (stereo not shown) [Compound 393, N-(5-methyl-2,3-dihydrobenzo[b]thiophen-3-yl)-2-oxo-6-(trifluoromethyl)-1,2-dihydropyridine-3-carboxamide], with 1230 nM; and `Cc1ccc2c(c1)C(NC(=O)c1ccc(C(F)(F)F)[nH]c1=O)CC(C)O2` (stereo not shown) [Compound 394, N-(2,6-dimethylchroman-4-yl)-2-oxo-6-(trifluoromethyl)-1,2-dihydropyridine-3-carboxamide], with 260 nM.
Then `Cc1ccc2c(c1)OCC2NC(=O)c1ccc(C(F)(F)F)[nH]c1=O` (stereo not shown) [Compound 395, N-(6-methyl-2,3-dihydrobenzofuran-3-yl)-2-oxo-6-(trifluoromethyl)-1,2-dihydropyridine-3-carboxamide], with 9170 nM; and `Cc1ccc2c(c1)SCCC2NC(=O)c1ccc(C(F)(F)F)[nH]c1=O` (stereo not shown) [Compound 396, N-(7-methylthiochroman-4-yl)-2-oxo-6-(trifluoromethyl)-1H-pyridine-3-carboxamide], with 260 nM.
Regarding `Cc1ccc([C@H](NC(=O)c2ccc(C(F)(F)F)[nH]c2=O)[C@@H]2CCCOC2)cc1` [Compound 397, 2-oxo-N—((R)—((S)-tetrahydro-2H-pyran-3-yl)(p-tolyl)methyl)-6-(trifluoromethyl)-1,2-dihydropyridine-3-carboxamide], the 50% inhibitory concentration (IC50) amounted to 2970 nM.
Then `Cc1ccc([C@H](NC(=O)c2ccc(C(F)(F)F)[nH]c2=O)[C@H]2CCCOC2)cc1` [Compound 398, 2-oxo-N—((R)—((R)-tetrahydro-2H-pyran-3-yl)(p-tolyl)methyl)-6-(trifluoromethyl)-1,2-dihydropyridine-3-carboxamide], with 6150 nM; and `CC1CCC(C(NC(=O)c2ccc(C(F)(F)F)[nH]c2=O)c2ccccc2)CC1` (stereo not shown) [Compound 399, N-((4-methylcyclohexyl)(phenyl)methyl)-2-oxo-6-(trifluoromethyl)-1,2-dihydropyridine-3-carboxamide], with 300 nM.
`Cc1ccc(C(NC(=O)c2ccc(C(F)(F)F)[nH]c2=O)C2CCC(C)CC2)cc1` (stereo not shown) [Compound 400, N-((4-methylcyclohexyl)(p-tolyl)methyl)-2-oxo-6-(trifluoromethyl)-1,2-dihydropyridine-3-carboxamide]: the IC50 is 230 nM.
Under `CCCC(NC(=O)c1ccc(C(F)(F)F)[nH]c1=O)c1ccc(C)cc1` (stereo not shown) [Compound 402, 2-oxo-N-(1-(p-tolyl)butyl)-6-(trifluoromethyl)-1,2-dihydropyridine-3-carboxamide] stands 360 nM; under `CCCC1CC(NC(=O)c2ccc(C(F)(F)F)[nH]c2=O)c2cc(C)ccc2O1` (stereo not shown) [Compound 403, N-(6-methyl-2-propylchroman-4-yl)-2-oxo-6-(trifluoromethyl)-1,2-dihydropyridine-3-carboxamide], 110 nM; under `CCC1CC(NC(=O)c2ccc(C(F)(F)F)[nH]c2=O)c2cc(C)ccc2O1` (stereo not shown) [Compound 404, N-(2-ethyl-6-methylchroman-4-yl)-2-oxo-6-(trifluoromethyl)-1,2-dihydropyridine-3-carboxamide], 220 nM.
Under `Cc1ccc2c(c1)C(NC(=O)c1ccc(C(F)(F)F)[nH]c1=O)CO2` (stereo not shown) [Compound 408, N-(5-methyl-2,3-dihydrobenzofuran-3-yl)-2-oxo-6-(trifluoromethyl)-1,2-dihydropyridine-3-carboxamide] stands 2470 nM; under `COc1ccc2c(c1)Sc1cc(N)ccc1C2NC(=O)c1ccc(C(F)F)[nH]c1=O` (stereo not shown) [Compound 410, N-(3-amino-6-methoxy-9H-thioxanthen-9-yl)-6-(difluoromethyl)-2-oxo-1,2-dihydropyridine-3-carboxamide], 430 nM.
Then `COc1ccc2c(c1)Sc1cc(N)ccc1C2NC(=O)c1ccc(C(F)(F)F)[nH]c1=O` (stereo not shown) [Compound 411, N-(3-amino-6-methoxy-9H-thioxanthen-9-yl)-2-oxo-6-(trifluoromethyl)-1,2-dihydropyridine-3-carboxamide], with 80 nM.
In the case of `Cc1ccc(C(CC2CCCC2)NC(=O)c2ccc(C(F)(F)F)[nH]c2=O)cc1` (stereo not shown) [Compound 412, N-(2-cyclopentyl-1-(p-tolyl)ethyl)-2-oxo-6-(trifluoromethyl)-1,2-dihydropyridine-3-carboxamide], the IC50 was 110 nM.
Consider `O=C(NC1c2cc(OC(F)(F)F)ccc2-c2ccc(OC(F)(F)F)cc21)c1ccc(C(F)(F)F)[nH]c1=O` [Compound 413, N-(2,7-bis(trifluoromethoxy)-9H-fluoren-9-yl)-2-oxo-6-(trifluoromethyl)-1,2-dihydropyridine-3-carboxamide], for which the IC50 was determined as 880 nM.
Under `COc1ccc2c(c1)C(NC(=O)c1ccc(C(F)(F)F)[nH]c1=O)c1cc(OC)ccc1-2` [Compound 415, N-(2,7-dimethoxy-9H-fluoren-9-yl)-2-oxo-6-(trifluoromethyl)-1,2-dihydropyridine-3-carboxamide] stands 50 nM; under `Cc1ccc2c(c1)C(NC(=O)c1ccc(C(F)(F)F)[nH]c1=O)c1cc(C)ccc1-2` [Compound 418, N-(2,7-dimethyl-9H-fluoren-9-yl)-2-oxo-6-(trifluoromethyl)-1,2-dihydropyridine-3-carboxamide], 70 nM.
As to `CNc1ccc(C(NC(=O)c2ccc(C(F)(F)F)[nH]c2=O)c2ccc(C)cc2)cc1` (stereo not shown) [Compound 420, N-((4-(methylamino)phenyl)(p-tolyl)methyl)-2-oxo-6-(trifluoromethyl)-1,2-dihydropyridine-3-carboxamide], the IC50 came to 130 nM.
Then `CC(F)(F)c1ccc(C(=O)NC2c3ccccc3Sc3ccccc32)c(=O)[nH]1` [Compound 423, 6-(1,1-difluoroethyl)-2-oxo-N-(9H-thioxanthen-9-yl)-1,2-dihydropyridine-3-carboxamide], with 790 nM.
Under `CC(F)(F)c1ccc(C(=O)NC2c3ccccc3Oc3ccccc32)c(=O)[nH]1` [Compound 424, 6-(1,1-difluoroethyl)-2-oxo-N-(9H-xanthen-9-yl)-1,2-dihydropyridine-3-carboxamide] stands 1140 nM; under `Cc1ccc2c(c1)S(=O)(=O)c1cc(C)ccc1C2NC(=O)c1cc(N2CCNCC2)c(C(F)(F)F)[nH]c1=O` [Compound 425, N-(3,6-dimethyl-10,10-dioxido-9H-thioxanthen-9-yl)-2-oxo-5-(piperazin-1-yl)-6-(trifluoromethyl)-1,2-dihydropyridine-3-carboxamide], 270 nM; under `Cc1ccc2c(c1)Sc1cc(C)ccc1C2NC(=O)c1cc(N2CCN(C)CC2)c(C(F)(F)F)[nH]c1=O` [Compound 427, N-(3,6-dimethyl-9H-thioxanthen-9-yl)-5-(4-methylpiperazin-1-yl)-2-oxo-6-(trifluoromethyl)-1,2-dihydropyridine-3-carboxamide], 130 nM.
Under `Cc1ccc2c(c1)S(=O)(=O)c1cc(C)ccc1C2NC(=O)c1cc(NC2CCCCC2)c(C(F)(F)F)[nH]c1=O` [Compound 428, 5-(cyclohexylamino)-N-(3,6-dimethyl-10,10-dioxido-9H-thioxanthen-9-yl)-2-oxo-6-(trifluoromethyl)-1,2-dihydropyridine-3-carboxamide] stands 20 nM.
